Where two headings read alike, the source gives them in different places. Blank lines part the entries; values can stand above or below the substance they belong to. Square brackets hold non-standard residues; d marks the D form. Ends that are not written are not given here. pGlu = O=C1CC[C@@H](C(=O)O)N1
What was measured:
mHypoE-38 neurons = assay: 3H-2-deoxyglucose uptake in mHypoE-38 hypothalamic neurons; assay type: cell-based, mouse
Method: The effect of TCAP-1 on glucose uptake in brain cells was examined in immortalized […] hypothalamic cells. Immortalized mHypoE-38 hypothalamic embryonic mouse neurons (gift from Dr. Denise Belsham, University of Toronto) were grown in Dulbecco's Modified Eagle Medium (DMEM) containing 4500 mg/L D-glucose, L-glutamine, and 25 mM HEPES buffer, without sodium pyruvate or phenol red (Gibco, Cat. No. 21063029), supplemented with 5% heat-inactivated fetal bovine serum (FBS), 100 U/ml penicillin and 100 μg/ml streptomycin. Cells were maintained at 60-70% confluency at 37° C. in a humidified CO2 incubator. To passage, cells were washed once in sterile PBS, trypsinized and seeded at a density of 100,000 cells per 3.5 cm plate and allowed to grow for 2-3 days. 24 hours prior to experimentation, medium was changed. mHypoE-38 hypothalamic cells were grown in 6-well tissue culture dishes (Corning Incorporated, Cat. No. 3516) at a seeding density of200 000 cells/9.5 cm^2 well in a 37° C. normoxic incubator. Cultures were grown for 36 hours to 85% confluence prior to experimentation. At day 3 post-plating, cells were washed twice with Locke's buffer (154 mM NaCl, 5.6 mM KCl, 2.3 mM CaCl2, 3.6 mM NaHCO3, 5 mM HEPES) without serum and glucose. The culture was incubated in the Locke's buffer for 1 hour at 37° C. followed by exposure to 100 nM insulin, 100 nM TCAP-1, 100 nM SC-TCAP-1, or saline. KCl (40 mM) and […] (0.5 μCi/ml) were added to culture 5 minutes before termination of treatment exposure. Uptake of ^3H-2-deoxyglucose was stopped immediately after 5 minutes with three washes of ice-cold 0.9% NaCl solution. Parallel experiments with 5 μM of cytochalasin B were performed to ensure that glucose uptake was of transporter-inhibitable transport. The cells were digested with 1 ml of 0.05 N NaOH at 0, 15, 30, 45, 60, 90 and 120 minutes after treatment. Cell lysates were used for determination of radioactivity by a beta liquid scintillation counter. Experiments were repeated three times with 3 wells pear condition per replication. […] hypothalamic cells were cultured as above and treated with 100 nM insulin, 100 nM TCAP-1 or saline, exposed to 5.6 mM or 40 mM KCl and 0.5 μCi/well 3H-2-deoxy glucose, and subsequently lysed with 50 mM NaOH. Radioactivity in cell lysates was counted using a liquid scintillation counter.

C2C12 myocytes = assay: 3H-2-deoxyglucose uptake in C2C12 myocytes; assay type: cell-based, mouse; settings: 100 nM, over two hours (FIG. 20)
Method: The effect of TCAP-1 on glucose uptake in muscle cells was examined in a C2C12 mouse myocyte cell line. C2C12 myocytes were cultured in Dulbecco's Modified Eagle Medium (DMEM) containing 4500 mg/L D-glucose, L-glutamine, and 25 mM HEPES buffer, without sodium pyruvate or phenol red (Gibco, Cat. No. 21063029), supplemented with 20% heat-inactivated fetal bovine serum (FBS), 100 U/ml penicillin and 100 μg/ml streptomycin. Cells were maintained at 80% confluency at 37° C. in a humidified CO2 incubator. To initiate differentiation, myocytes were further cultured in DMEM supplemented with 10% heat-inactivated horse serum (HS), transferrin, 100 U/ml penicillin and 100 μg/ml streptomycin. Myocytes were allowed to differentiate into multi-nucleated myotubes for 5 days before experimentation. 24 hours prior to experimentation, medium was changed. At day 5 of differentiation, cells were deprived of serum and incubated in Minimal Essential Medium containing 1000 mg/L D-glucose, L-glutamine, without nucleosides (Gibco, Cat. No. 12561049) for 5 hours at 37° C. prior to incubation with insulin, TCAP-1, or saline. Cells were washed twice in glucose-free HEPES-buffered solution (HBS), containing 140 mM NaCl, 20 mM HEPES, 5 mM KCl, 2.5 mM MgSO4 and 1 mM CaCl2, followed by determinations of transport of 3H-2-deoxyglucose for 10 minutes at 0.5 μCi/ml at room temperature. Uptake of 3H-2-deoxyglucose was stopped immediately after 10 minutes with three washes of ice-cold 0.9% NaCl solution. Parallel experiments with 5 μM of cytochalasin B were done to ensure that glucose uptake was of transporter-inhibitable transport The cells were digested with 1 ml of 0.05 N NaOH. Cell lysates were used for determination of radioactivity by a beta liquid scintillation counter. Experiments were repeated three times with 3 wells per condition per replication. […] Cell lysates were used for determination of radioactivity by a beta liquid scintillation counter. […]

[1] = Uptake and clearance of TCAP-1 in plasma after IV or SC injection (TCAP ELISA); assay type: in vivo, rat; settings: for half-life: rat, in vivo
Method: Male Wistar rats weighing 400-450 g were obtained from Charles River Laboratories (Montreal, Canada). Rats were singly-housed in standard Plexiglas shoebox cages under standard laboratory conditions, (12 h light:dark cycle, lights on at 0700) with food and water available ad libitum. Testing took place between 0900 and 1200 hours. Rats were given one week to acclimatize to the laboratory before surgery. Rats were anesthetized with isoflurane (2-3% in 100% O2) and a catheter was implanted into the jugular vein.
The K37 biotinylated TCAP was diluted into 200 ul physiological saline to contain 10.5 ug for 5 nM/kg dose and 52.5 ug for 25 nM/kg dose. The rats weighed 400-450 g. 200 ul of peptide containing solution was delivered through the cannula, different syringe containing saline was connected and 200 ul of saline was delivered to push the peptide into the bloodstream. The third syringe containing the heparin solution was used to fill the line with the lock, 150-200 ul. After 5 min, the lock solution was aspirated into the syringe, and also about 150 ul of the blood were aspirated and disposed off in case of the local contamination with high peptide concentrations. 200 ul of the blood was sampled in a fresh syringe, line flushed with saline first (200 ul) and heparin saline next (150-200 ul).
(§1) Rats were gently restrained, cannula clamped and unplugged, 1 ml syringe with blunt needle attached to the end of the polyethylene 50 line and the lock solution containing heparin 50-100 U/ml was removed. The line was clamped and a new syringe with a blunt needle attached for withdrawing about 200 ul blood. The line was clamped and syringe removed to recover the blood. This blood sample was used to determine a baseline level of activity. All blood samples were incubated at a room temperature for 10-20 min and centrifuged at 3000 rpm for 5 min to recover the serum. The serum was frozen on dry ice and kept at −80° C. until the assay.
as §1, with “K37 TCAP was biotin labeled according to the biotinylation method above. Rats” for “Rats”
For IV administration, rats were gently restrained during the injection procedure. The IV cannula was unplugged and the lock solution (150-200 μl of 50-100 U/ml of heparin, Sigma Scientific) was removed. To obtain a baseline level of activity, 200 μl of blood was withdrawn prior to injection. 200 μl of TCAP-containing solution was delivered through the cannula, followed by 200 μl of saline to push the TCAP solution through the cannula. 150-200 μl of lock solution was injected to fill the catheter. For subcutaneous (SC) administration, rats were gently restrained and injected under the skin with 200 μl of TCAP-1-containing solution with a 23 gauge needle
Blood samples were obtained from the jugular catheter. Rats were gently restrained, and the IV cannula was unplugged. The lock solution was aspirated along with 150 μl of blood. This mixture was discarded in case of local contamination with high peptide concentrations. A sample of200 μl of blood was obtained in a fresh syringe. The catheter was then flushed with 200 μl of saline and then filled with 150-200 μl of lock solution. Lateral tail vein blood samples were obtained from lightly restrained rats whereby 200 μl of blood was obtained using a 23-gauge needle. A final bleed was achieved via cardiac puncture. […]

male Wistar rats = assay: Haematology assays in normal Wistar rats; assay type: in vivo, rat
Method: (§2) Whole blood samples were collected into plastic microcentrifuge tubes with EDTA-coated capillary tubes. A minimum sample volume of 20 μL was required for the analyses by the Toronto Centre for Phenogenomics (Mount Sinai Hospital, Toronto) using the Hemavet 950Fs Hematology Analyzer. From the whole blood samples, serum was separated from the cells and fibrin by centrifuging the collection tubes for five minutes at 7000 g at 25° C. Afterwards, immediately following collection of serum, the samples were stored and maintained at a freezing temperature of −80° C.
(§3) Haematology assays were performed on physiological normal rat serum and from Type II Diabetic GK rats obtained at the end of the in vivo studies noted herein in which TCAP-1 was administered to the normal rats and plasma glucose levels were monitored over the course of 1-2 weeks. […] Results are illustrated in FIGS. 6A to 6L.

male GK Wistar rats = assay: Haematology assays in Goto-Kakizaki rats; assay type: in vivo, rat
Method: as §2, §3

Substance: pETHSLELRVSLIGEVQQFIGYENQSDQNYGLLAYFDRVGMS-NH2 ([pGlu]THSLELRVSLIGEVQQFIGYENQSDQNYGLLAYFDRVGMS-NH2) [scTCAP-1, scrambled TCAP control with same amino acid composition but different order, pyroglutamic acid in first position]
3H-2-deoxyglucose uptake value relative to baseline (mHypoE-38 neurons; 100 nM, 40 mM KCl, 60 minutes): 61.523±7.545% | 3H-2-deoxyglucose uptake relative to baseline (mHypoE-38 neurons; 100 nM, 40 mM KCl, 90 minutes): 68.020±4.812% | 3HDG uptake in whole cells over time (mHypoE-38 neurons; Hypo-E38 cells (FIG. 11C-E)): no significant glucose uptake | 3H-2-deoxyglucose uptake signal (C2C12 myocytes): lack of positive signal

time of peak in plasma ([1]; IV administered, rat plasma): ≤ 1 min | time until cleared from plasma ([1]; IV-treated animals): about 100 min | time to 50% loss from plasma ([1]; SC administered, rat plasma): about 90 min | time until cleared from plasma ([1]; SC treated animals, highest dose of 125 ng/kg): about 170 min | half-life ([1]; iv, highest dose, read-out: plasma clearance half-life): 16 ± 4 min | half-life ([1]; iv, lowest dose, read-out: plasma clearance half-life): 4 ± 1 min | half-life ([1]; iv, mid dose, read-out: plasma clearance half-life): 7 ± 2 min | half-life ([1]; sc, highest dose, read-out: clearance time (plasma clearance half-life)): 36 ± 20 min | half-life ([1]; sc, lowest dose, read-out: clearance time (plasma clearance half-life)): 40 ± 4 min | half-life ([1]; sc, mid dose, read-out: clearance time (plasma clearance half-life)): 50 ± 11 min | haemoglobin concentrations (male Wistar rats; Wistar rats, 1 or 10 nmole/kg (FIG. 6A)): No significant results were observed | hematocrit counts (male Wistar rats; Wistar rats, 1 or 10 nmole/kg (FIG. 6B)): No significant results were observed | platelet counts (male Wistar rats; Wistar rats, 1 or 10 nmole/kg (FIG. 6C)): No significant results were observed | red blood cell counts (male Wistar rats; Wistar rats, 1 or 10 nmole/kg (FIG. 6D)): No significant results were observed | levels of white blood cells, neutrophils or lymphocytes (male Wistar rats; Wistar rats, 1 or 10 nmole/kg (FIG. 6E)): No significant results were observed | monocytes, basophils or eosinophils (male Wistar rats; Wistar rats, 1 or 10 nmole/kg (FIG. 6F)): No significant results were observed | haemoglobin concentrations (male GK Wistar rats; 10 nmole/kg (FIG. 6G)): No significant results were observed | hematocrit counts (male GK Wistar rats; 10 nmole/kg (FIG. 6H)): No significant results were observed | platelet counts (male GK Wistar rats; 10 nmole/kg (FIG. 6I)): No significant results were observed | red blood cell counts (male GK Wistar rats; 10 nmole/kg (FIG. 6J)): No significant results were observed | levels of white blood cells, neutrophils or lymphocytes (male GK Wistar rats; 10 nmole/kg (FIG. 6K)): No significant results were observed | monocytes, basophils or eosinophils (male GK Wistar rats; 10 nmole/kg (FIG. 6L)): No significant results were observed
Substance: QQLLGTGRVQGYDGYFVLSVEQYLELSDSANNIHFMRQSEI-NH2 (C-terminus assumed) [TCAP-1]
clot formation in blood samples (male Wistar rats; observation on collected blood samples): clots formed more frequently in the blood samples of TCAP-1 treated rats | white blood cells, neutrophils and lymphocytes, trend (male GK Wistar rats; results called variable and inconclusive): appears to be a decrease in white blood cells, neutrophils and lymphocytes
